“Also recorded” adds a separate entry of the source.
What was measured:
DRO cells [1] = assay: Real-time PCR of RhoB and p21 RNA in DRO cells; type: cell-based, human; settings: 10 nM vs DMSO, time course
Experimental: Experiments also were conducted to examine the expression of RhoB in response to treatment with a PPARγ agonist. Cells from the human ATC cell line, DRO, were treated at various time points during 48 hours with DMSO control (0.1%) or 10 nM RS5444. RhoB and p21^WAF1/CIP1 RNA levels were measured using real-time PCR. Data were normalized to DMSO untreated controls for each time point measured.
Total mRNA was isolated from cells using RNAqueous (Ambion) per the manufacturer's protocol followed by ethanol precipitation. Total RNA from normal thyroid tissue was extracted using TOTALLY RNA (Ambion) according to manufacturer's protocol followed by Chroma Spin Column 100 (BD Bioscience). Two-step quantitative reverse transcriptase-mediated real-time PCR (QPCR) was used to measure changes in mRNA levels of target genes in ATC cells. Total RNA was reverse transcribed using the High-Capacity cDNA Archive kit (Applied Biosystems) per the manufacturer's instructions. […] Forty amplification cycles were performed on the Applied Biosystems Prism 7900 sequence detector, with cycle threshold (Ct) values calculated using the Sequence Detection System software (SDS 2.2.2. Applied Biosystems) normalized against 18S rRNA levels. Fold change values either between treated (RS5444) and control samples were calculated using the ΔΔCt method (Livak and Schmittgen, Methods, 25:402-408 (2001)).

PPARγ = biological target: T1, PPARγ (Homo sapiens, UniProt P37231); assay: PPAR isoform luciferase reporter in transfected RIE cells; type: cell-based; design: expressed in transfected cells; host or cells: RIE (rat small intestinal cell line); settings: RIE cells transfected with PPARγ and PPRE3-tk-luc, 10 nM
T1 sequence (P37231 1-505): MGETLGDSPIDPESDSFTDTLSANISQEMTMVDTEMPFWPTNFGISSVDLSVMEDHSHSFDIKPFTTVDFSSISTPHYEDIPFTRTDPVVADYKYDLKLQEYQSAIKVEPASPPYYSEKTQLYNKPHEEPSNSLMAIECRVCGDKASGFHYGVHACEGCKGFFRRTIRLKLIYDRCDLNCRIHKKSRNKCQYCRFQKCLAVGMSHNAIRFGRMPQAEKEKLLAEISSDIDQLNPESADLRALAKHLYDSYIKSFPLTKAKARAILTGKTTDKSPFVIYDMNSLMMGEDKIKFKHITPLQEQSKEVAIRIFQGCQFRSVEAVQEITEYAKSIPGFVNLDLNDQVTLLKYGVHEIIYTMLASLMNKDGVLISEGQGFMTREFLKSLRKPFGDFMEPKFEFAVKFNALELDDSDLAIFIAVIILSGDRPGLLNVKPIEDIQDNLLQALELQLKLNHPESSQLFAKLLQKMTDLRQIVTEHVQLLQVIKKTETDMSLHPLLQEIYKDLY
From the text: Increased luciferase activity was only observed in the presence of PPARγ and PPRE3-tk-luc.

DRO cells [2] = assay: Clonogenic growth of DRO cells in soft agar; type: cell-based, human; settings: two weeks
Experimental: The ability of RS5444 to inhibit clonogenic growth of DRO cells in soft agar was also examined (FIG. 3C). DRO cells were plated in triplicate on soft agar for colony formation and treated with the indicated doses of RS5444. Colonies were stained and counted after two weeks.

DRO = assay: ATC (DRO) tumor growth in athymic nude mice, RS5444 in diet; type: in vivo; settings: for tumor growth inhibition: started one week prior to DRO implantation
Experimental: RS5444 was added to the rodent diet one week prior to tumor implantation with DRO. […] Suspensions of 1×10^6/0.1 mL DRO or ARO cells in RPMI medium were injected subcutaneously in one flank of 3 to 4 week old athymic female nude mice. […] Mice weighed between 20-25 grams and consumed on average 4 grams of food per day (1 mg/day of RS5444).

DRO cells [3] = assay: Affymetrix Plus 2.0 array, nucleic acid expression in DRO cells in cell culture; type: cell-based, human; settings: 10 nM single dose
Experimental: Affymetrix Plus 2.0 arrays were used to identify nucleic acids altered between control vehicle-treated and RS5444-treated ATC cells from cell culture and tumors implanted ectopically into athymic nude mice. Cells in culture were treated with a single dose of 10 nM RS5444 for either 2, 6, or 24 hours. Animals were treated with 0.025% RS5444 after implantation of 1×10^6 DRO cells. Animals were fed a diet including 0.025% RS5444 for 35 days, and tumor volume was measured weekly. Tumor tissues were removed, RNA was isolated, and nucleic acid expression was analyzed. Examples of some nucleic acids, the expression of which was altered in both the animal derived tumors and cells in culture, are presented in Table 1. Some of the nucleic acids regulated by PPARγ in ATC cells (e.g., BMP2, MMP14, ANGPTL4, and ITGA5) are secreted polypeptides (Table 1).

activation of PPARγ (luciferase activity) (PPARγ): specifically activates PPARγ
Compound: Cc1cc(Oc2ccc3nc(COc4ccc(CC5SC(=O)NC5=O)cc4)n(C)c3c2)cc(C)c1N (stereo not shown) [RS5444]
RhoB mRNA levels (real-time PCR) (DRO cells [1]): RhoB mRNA induction as early as 2 hours; also recorded: significantly elevated at 12 hours through 48 hours | inhibition of colony formation in soft agar (DRO cells [2]; 1 nM): 63% | inhibition of colony formation in soft agar (DRO cells [2]; 10 nM): 98% | inhibition of colony formation in soft agar (DRO cells [2]; 100 nM): 99.4% | tumor growth inhibition (DRO; 0.00025% in diet): No inhibition of tumor growth | tumor growth inhibition (DRO; 0.0025% in diet): 54.5% | mice that did not form tumors (DRO; 0.025% diet group): 5 of 10 | tumor growth inhibition (DRO; 0.025% in diet): 89.7% | Fold change in vitro, ADRB1 (DRO cells [3]; ADRB1, 2 h): −3.3 fold | Fold change in vitro, ADRB1 (DRO cells [3]; ADRB1, 24 h): −2.2 fold | Fold change in vitro, ANGPTL4 (DRO cells [3]; ANGPTL4, 2 h): 5.3 fold | Fold change in vitro, ANGPTL4 (DRO cells [3]; ANGPTL4, 6 h): 4.9 fold | Fold change in vitro, ANGPTL4 (DRO cells [3]; ANGPTL4, 24 h): 8.4 fold | Fold change in vitro, BMP2 (DRO cells [3]; BMP2, 24 h): 2.5 fold | Fold change in vitro, HR (DRO cells [3]; 2 h): 2 fold | Fold change in vitro, HR (DRO cells [3]; 24 h): 2.3 fold | Fold change in vitro, IL1B (DRO cells [3]; IL1B, 24 h): 14.2 fold | Fold change in vitro, ITGA5 (DRO cells [3]; ITGA5, 24 h): 2.2 fold | Fold change in vitro, LMAN1 (DRO cells [3]; LMAN1, 6 h): −2 fold | Fold change in vitro, MMP14 (DRO cells [3]; MMP14, 2 h): 5.4 fold | Fold change in vitro, MMP14 (DRO cells [3]; MMP14, 24 h): 16.9 fold | Fold change in vitro, RhoB (DRO cells [3]; 2 h): 3.4 fold | Fold change in vitro, RhoB (DRO cells [3]; 6 h): 4.1 fold | Fold change in vitro, RhoB (DRO cells [3]; 24 h): 2.8 fold

Reference: patent publication US20080167532A1, “ASSESSING CANCER TREATMENT RESPONSIVENESS” (Mayo Foundation for Medical Education and Research, priority 2006, published 2008)
